This is an account of results in ChEMBL document CHEMBL5331073, “Discovery of novel 7,7-dimethyl-6,7-dihydro-5H-pyrrolo[3,4-d]pyrimidines as ATR inhibitors based on structure-based drug design” (Eur J Med Chem, 2023).

Some results are limits rather than exact numbers.

For the experiment, the target named is Serine/threonine-protein kinase ATR (Homo sapiens, UniProt Q13535). Kind of experiment: Inhibition of ATR (unknown origin) using peptide as substrate preincubated for 10 mins followed by substrate addition by microplate reader analysis.
Chain of Serine/threonine-protein kinase ATR (Q13535 whole entry): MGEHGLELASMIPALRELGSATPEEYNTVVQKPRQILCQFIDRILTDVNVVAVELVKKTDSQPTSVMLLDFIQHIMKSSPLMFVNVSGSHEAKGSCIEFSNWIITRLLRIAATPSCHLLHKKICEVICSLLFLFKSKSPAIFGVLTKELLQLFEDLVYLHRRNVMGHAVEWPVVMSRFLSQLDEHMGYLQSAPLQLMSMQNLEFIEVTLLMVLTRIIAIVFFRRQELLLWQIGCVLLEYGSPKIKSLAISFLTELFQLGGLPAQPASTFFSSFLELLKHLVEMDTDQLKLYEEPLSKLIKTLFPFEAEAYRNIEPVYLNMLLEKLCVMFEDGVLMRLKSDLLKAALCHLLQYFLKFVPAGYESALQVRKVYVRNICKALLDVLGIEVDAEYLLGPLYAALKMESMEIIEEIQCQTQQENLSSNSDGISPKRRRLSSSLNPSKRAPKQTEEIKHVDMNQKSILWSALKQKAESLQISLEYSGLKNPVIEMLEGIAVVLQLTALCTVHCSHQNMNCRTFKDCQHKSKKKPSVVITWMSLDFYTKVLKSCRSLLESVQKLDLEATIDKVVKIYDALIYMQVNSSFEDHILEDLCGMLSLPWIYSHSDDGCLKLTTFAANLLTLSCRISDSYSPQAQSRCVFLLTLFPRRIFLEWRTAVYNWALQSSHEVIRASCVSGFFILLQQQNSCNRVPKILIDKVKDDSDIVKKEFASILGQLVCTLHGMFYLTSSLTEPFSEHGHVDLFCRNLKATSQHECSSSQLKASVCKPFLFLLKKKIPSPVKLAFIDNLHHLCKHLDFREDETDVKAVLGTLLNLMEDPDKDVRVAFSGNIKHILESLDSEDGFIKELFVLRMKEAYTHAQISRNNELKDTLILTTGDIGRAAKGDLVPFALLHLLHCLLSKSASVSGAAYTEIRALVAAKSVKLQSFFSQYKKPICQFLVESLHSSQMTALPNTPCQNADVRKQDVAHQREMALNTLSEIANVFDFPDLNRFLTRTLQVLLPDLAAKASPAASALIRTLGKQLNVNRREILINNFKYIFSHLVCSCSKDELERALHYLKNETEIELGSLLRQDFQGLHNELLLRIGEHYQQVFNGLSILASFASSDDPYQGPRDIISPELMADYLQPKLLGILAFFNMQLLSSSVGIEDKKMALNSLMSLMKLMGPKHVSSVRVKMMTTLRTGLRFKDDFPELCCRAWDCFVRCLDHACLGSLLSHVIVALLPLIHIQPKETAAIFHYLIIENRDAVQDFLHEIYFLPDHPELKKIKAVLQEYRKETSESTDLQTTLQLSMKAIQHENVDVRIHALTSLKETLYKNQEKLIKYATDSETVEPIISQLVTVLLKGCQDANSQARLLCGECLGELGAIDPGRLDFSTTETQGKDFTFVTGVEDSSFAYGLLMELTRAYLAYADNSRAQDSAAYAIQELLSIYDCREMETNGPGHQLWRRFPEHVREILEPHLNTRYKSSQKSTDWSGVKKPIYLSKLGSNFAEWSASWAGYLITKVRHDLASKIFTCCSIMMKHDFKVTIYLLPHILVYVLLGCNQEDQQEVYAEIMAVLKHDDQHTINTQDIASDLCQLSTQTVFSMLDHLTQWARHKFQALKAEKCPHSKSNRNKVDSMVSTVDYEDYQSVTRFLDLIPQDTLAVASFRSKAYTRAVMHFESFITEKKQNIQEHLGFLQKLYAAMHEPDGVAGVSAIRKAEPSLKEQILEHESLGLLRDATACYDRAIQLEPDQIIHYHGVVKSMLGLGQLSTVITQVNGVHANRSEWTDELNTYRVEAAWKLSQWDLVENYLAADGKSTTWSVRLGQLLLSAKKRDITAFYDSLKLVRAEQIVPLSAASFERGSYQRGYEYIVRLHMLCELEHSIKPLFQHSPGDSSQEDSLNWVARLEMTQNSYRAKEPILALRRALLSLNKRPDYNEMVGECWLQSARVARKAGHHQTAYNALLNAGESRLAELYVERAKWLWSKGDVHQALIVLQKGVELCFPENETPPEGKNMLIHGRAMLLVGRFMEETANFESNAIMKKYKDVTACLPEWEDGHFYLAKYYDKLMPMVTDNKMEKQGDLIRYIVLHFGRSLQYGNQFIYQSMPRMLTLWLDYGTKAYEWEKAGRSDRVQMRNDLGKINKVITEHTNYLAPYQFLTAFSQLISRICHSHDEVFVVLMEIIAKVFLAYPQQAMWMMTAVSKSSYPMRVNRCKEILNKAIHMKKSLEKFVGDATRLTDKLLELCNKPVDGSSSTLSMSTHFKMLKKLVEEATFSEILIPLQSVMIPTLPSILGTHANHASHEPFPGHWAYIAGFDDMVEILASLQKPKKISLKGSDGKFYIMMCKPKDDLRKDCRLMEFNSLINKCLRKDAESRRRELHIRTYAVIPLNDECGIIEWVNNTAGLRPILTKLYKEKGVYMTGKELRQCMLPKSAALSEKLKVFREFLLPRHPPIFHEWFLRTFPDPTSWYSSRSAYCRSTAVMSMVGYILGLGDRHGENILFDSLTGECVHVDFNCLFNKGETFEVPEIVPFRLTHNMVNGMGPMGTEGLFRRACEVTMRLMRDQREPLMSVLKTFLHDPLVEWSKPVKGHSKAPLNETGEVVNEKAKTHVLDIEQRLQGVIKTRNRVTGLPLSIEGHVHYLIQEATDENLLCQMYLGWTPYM
`C[C@@H]1COCCN1c1nc(-c2cccc3[nH]ccc23)nc2c1CCN(C(=O)CN(C)C)C2(C)C` gave an IC50 of 32 nM.

As for `CC(C)C(=O)N1CCc2c(N3CCOC[C@H]3C)nc(-c3cccc4[nH]ccc34)nc2C12CCC2`, it took 29 nM to reach half-maximal inhibition (IC50).

`C[C@@H]1COCCN1c1nc(-c2cccc3[nH]ccc23)nc2c1CCN(C(=O)C1CCC1)C2(C)C` displayed an IC50 of 17 nM.

Regarding `CC(=O)N1CCc2c(nc(-c3cccc4[nH]ccc34)nc2N2CCOC[C@H]2C)C1`, the IC50 came out at 29 nM.

In turn, `C[C@@H]1COCCN1c1nc(-c2cccc3[nH]ccc23)nc2c1CCN(C(=O)C1CC1)C2` displayed an IC50 of 14 nM.

Regarding `CCC(=O)N1CCc2c(nc(-c3cccc4[nH]ccc34)nc2N2CCOC[C@H]2C)C1`, the IC50 came to 38 nM.

`C[C@@H]1COCCN1c1nc(-c2cccc3[nH]ccc23)nc2c1CCN(C(=O)c1cccc(Cl)c1)C2(C)C` yielded an IC50 of 43 nM.

Consider `COc1cccc(C(=O)N2CCc3c(N4CCOC[C@H]4C)nc(-c4cccc5[nH]ccc45)nc3C23CCC3)c1`, for which the IC50 was > 100 nM.

`C[C@@H]1COCCN1c1nc(-c2cccc3[nH]ccc23)nc2c1CCN(C(=O)c1ccc(F)cc1)C2(C)C` yielded an IC50 of 18 nM.

For the compound `Cc1cccc(C(=O)N2CCc3c(N4CCOC[C@H]4C)nc(-c4cccc5[nH]ccc45)nc3C2(C)C)c1`, the IC50 was found to be 17 nM.

`C[C@@H]1COCCN1c1nc(-c2cccc3[nH]ccc23)nc2c1CCN(C(=O)C1CC1)C21CCC1`: the IC50 was 28 nM.

Regarding `COc1ccc(C(=O)N2CCc3nc(-c4cccc5[nH]ccc45)nc(N4CCOC[C@H]4C)c3C2)cc1`, the IC50 was > 1100 nM.

Take `C[C@@H]1COCCN1c1nc(-c2cccc3[nH]ccc23)nc2c1CCN(C(=O)C1CC1)C2(C)C`: the IC50 turned out to be 8 nM.

The compound `C[C@@H]1COCCN1c1nc(-c2cccc3[nH]ccc23)nc2c1CN(C(=O)C1CC1)CC2` gave an IC50 of 111 nM.

For the compound `COc1ccc(C(=O)N2CCc3c(N4CCOC[C@H]4C)nc(-c4cccc5[nH]ccc45)nc3C23CCC3)cc1`, the IC50 is > 100 nM.

`CC(C)C(=O)N1CCc2c(nc(-c3cccc4[nH]ccc34)nc2N2CCOC[C@H]2C)C1`: the IC50 came out at 15 nM.

`COc1ccc(C(=O)N2CCc3c(nc(-c4cccc5[nH]ccc45)nc3N3CCOC[C@H]3C)C2)cc1`: half-maximal inhibition (IC50) required 51 nM.

On to `C[C@@H]1COCCN1c1nc(-c2cccc3[nH]ccc23)nc2c1CCN(C(=O)c1cccc(C(F)(F)F)c1)C2(C)C`, for which the IC50 was 72 nM.

In turn, `COc1cc(C(=O)N2Cc3c(N4CCOC[C@H]4C)nc(-c4cccc5[nH]ccc45)nc3C2(C)C)cc(OC)c1OC` returned an IC50 of 19 nM.

For the compound `C=CC(=O)N1CCc2c(N3CCOC[C@H]3C)nc(-c3cccc4[nH]ccc34)nc2C1(C)C`, half-maximal inhibition (IC50) required 6 nM.

Consider `C[C@@H]1COCCN1c1nc(-c2cccc3[nH]ccc23)nc2c1CCN(C(=O)c1ccc(C(F)(F)F)cc1)C2(C)C`, for which the IC50 is > 100 nM.

As for `CCC(=O)N1CCc2nc(-c3cccc4[nH]ccc34)nc(N3CCOC[C@H]3C)c2C1`, the IC50 is > 1100 nM.

Turning to `COc1cccc(C(=O)N2CCc3c(N4CCOC[C@H]4C)nc(-c4cccc5[nH]ccc45)nc3C2(C)C)c1`, the IC50 amounted to 5 nM.

The compound `CCOC(=O)N1CCc2c(N3CCOC[C@H]3C)nc(-c3cccc4[nH]ccc34)nc2C1(C)C` gave an IC50 of 18 nM.

Compound `COC(=O)N1CCc2c(N3CCOC[C@H]3C)nc(-c3cccc4[nH]ccc34)nc2C1(C)C` displayed an IC50 of 18 nM.

For the compound `COc1cccc(C(=O)N2CCc3nc(-c4cccc5[nH]ccc45)nc(N4CCOC[C@H]4C)c3C2)c1`, the IC50 was > 100 nM.

`C[C@@H]1COCCN1c1nc(-c2cccc3[nH]ccc23)nc2c1CCN(C(=O)CN1CCN(C)CC1)C2(C)C` gave an IC50 of 52 nM.

`C[C@@H]1COCCN1c1nc(-c2cccc3[nH]ccc23)nc2c1CCN(C(=O)C(C)(C)C)C2(C)C` had an IC50 of 17 nM.

On to `COc1ccc(C(=O)N2Cc3c(N4CCOC[C@H]4C)nc(-c4cccc5[nH]ccc45)nc3C2(C)C)cc1OC`, for which the IC50 came to 7 nM.

`CCC(=O)N1CCc2c(N3CCOC[C@H]3C)nc(-c3cccc4[nH]ccc34)nc2C12CCC2` returned an IC50 of 23 nM.
